Results reported in US12029739B2, “SHP2 inhibitor and use thereof” (KANAPH THERAPEUTICS INC., priority 2021, dated 2024).
Where two headings read alike, the source gives them in different places.

How the values were obtained:
SHP2 (full length) = target: T1, SHP2 (full length) (Homo sapiens, UniProt Q06124); experiment: Phosphatase assay (PTPase assay) with DiFMUP substrate; type: biochemical; details: SHP2 activated with SHP2 activating peptide, DiFMUP 80 μM, 2 hours, fluorescence
T1 construct: SHP2 (full length, diluted to 100 pM final concentration in reaction buffer, BPS bioscience, US); purchased BPS bioscience, US
T1 sequence (Q06124 1-593): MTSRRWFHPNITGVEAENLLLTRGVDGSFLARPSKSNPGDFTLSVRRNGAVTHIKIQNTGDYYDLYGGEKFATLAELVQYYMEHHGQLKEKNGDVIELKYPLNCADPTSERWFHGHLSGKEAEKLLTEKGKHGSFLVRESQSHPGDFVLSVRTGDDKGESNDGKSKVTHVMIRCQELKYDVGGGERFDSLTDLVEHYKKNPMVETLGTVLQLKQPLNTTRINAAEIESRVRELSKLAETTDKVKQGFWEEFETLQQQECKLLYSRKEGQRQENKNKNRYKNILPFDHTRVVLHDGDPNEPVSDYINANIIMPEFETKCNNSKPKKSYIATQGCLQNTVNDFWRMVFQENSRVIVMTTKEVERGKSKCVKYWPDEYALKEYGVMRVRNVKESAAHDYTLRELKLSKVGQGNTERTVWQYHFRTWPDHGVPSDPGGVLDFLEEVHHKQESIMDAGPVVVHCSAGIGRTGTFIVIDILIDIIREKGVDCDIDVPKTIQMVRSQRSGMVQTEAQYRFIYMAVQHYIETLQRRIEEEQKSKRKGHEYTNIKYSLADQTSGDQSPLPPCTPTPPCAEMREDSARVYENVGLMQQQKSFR

[1] = test system: phospho-ERK in MIA PaCa2 or H358 cells; experiment: Phospho-ERK assay (AlphaLisa); type: cell-based
[2] = 1.5 h, read-out: IC50 (p-ERK, nM)
[3] = MIA PaCa2 or H358 cells, compound incubated 1.5 hours, read-out: IC50 (p-ERK)
[4] = 1.5 h, MIA PaCa2 or H358 cells, compound incubated 1.5 hours, read-out: IC50 (p-ERK)

| IC50 (SHP2 (full length); read-out: IC50 (PTPase aS say)) | IC50 [1, 4] | Compound | IC50 (SHP2 (full length); IC50 (PTPase aS say, nM)) | IC50 [1, 2] | IC50 [1, 3] |
| --- | --- | --- | --- | --- | --- |
|  |  | C[C@@H]1OCC2(CCN(c3cnc(Sc4cccc(S(=O)(=O)F)c4Cl)cn3)CC2)[C@@H]1N [Example 11, 3-((5-((3S,4S)-4-amino-3-methyl-2-oxa-8-azaspiro[4.5]decan-8-yl)pyrazin-2-yl)thio)-2-chlorobenzenesulfonyl fluoride] | < 3 nM | < 45 nM |  |
| 3 to 100 nM | 45 to 1500 nM | CC1(N)CCN(c2cnc(Sc3ccc4ncn(Cc5cccc([N+](=O)[O-])c5)c(=O)c4c3Cl)cn2)CC1 [Example 14, 6-((5-(4-amino-4-methylpiperidin-1-yl)pyrazin-2-yl)thio)-5-chloro-3-(3-nitrobenzyl)quinazolin-4(3H)-one] |  |  |  |
| 3 to 100 nM | 45 to 1500 nM | Cn1cnc2ccc(Sc3cnc(N4CCC(C)(CN)CC4)cn3)c(Cl)c2c1=O [Example 15, 6-((5-(4-(aminomethyl)-4-methylpiperidin-1-yl)pyrazin-2-yl)thio)-5-chloro-3-methylquinazolin-4(3H)-one] |  |  |  |
|  |  | CC1(CN)CCN(c2cnc(Sc3ccc4ncn(Cc5cccc(S(=O)(=O)F)c5)c(=O)c4c3Cl)cn2)CC1 [Example 16, 3-((6-((5-(4-(aminomethyl)-4-methylpiperidin-1-yl)pyrazin-2-yl)thio)-5-chloro-4-oxoquinazolin-3(4H)-yl)methyl)benzenesulfonyl fluoride] | < 3 nM | 45 to 1500 nM |  |
|  |  | CC1(CN)CCN(c2cnc(Sc3ccc4ncn(Cc5ccc(S(=O)(=O)F)cc5)c(=O)c4c3Cl)cn2)CC1 [Example 17, 4-((6-((5-(4-(aminomethyl)-4-methylpiperidin-1-yl)pyrazin-2-yl)thio)-5-chloro-4-oxoquinazolin-3(4H)-yl)methyl)benzenesulfonyl fluoride] | 3 to 100 nM | 45 to 1500 nM |  |
|  |  | C[C@@H]1OCC2(CCN(c3cnc(Sc4ccc5ncn(Cc6cccc(S(=O)(=O)F)c6)c(=O)c5c4Cl)cn3)CC2)[C@@H]1N [Example 19, 3-((6-((5-((3S,4S)-4-amino-3-methyl-2-oxa-8-azospiro[4.5]decan-8-yl)pyrazin-2-yl)thio)-5-chloro-4-oxoquinazolin-3(4H)-yl)methyl)benzenesulfonyl fluoride] | < 3 nM | 45 to 1500 nM |  |
| < 3 nM | < 45 nM | C[C@@H]1OCC2(CCN(c3cnc(Sc4ccc5ncn(Cc6cccnc6)c(=O)c5c4Cl)cn3)CC2)[C@@H]1N [Example 20, 6-((5-((3S,4S)-4-amino-3-methyl-2-oxa-8-azospiro[4.5]decan-8-yl)pyrazin-2-yl)thio)-5-chloro-3-(pyridin-3-ylmethyl)quinazolin-4H-one] |  |  |  |
| 3 to 100 nM | 45 to 1500 nM | Cc1nc2ccc(Sc3cnc(N4CCC(C)(CN)CC4)cn3)c(Cl)c2c(=O)[nH]1 [Example 22, 6-((5-(4-(aminomethyl)-4-methylpiperidin-1-yl)pyrazin-2-yl)thio)-5-chloro-2-methylquinazolin-4(3H)-one] |  |  |  |
| 3 to 100 nM | 45 to 1500 nM | Cc1nc2ccc(Sc3cnc(N4CCC(C)(CN)CC4)cn3)c(Cl)c2c(=O)n1Cc1ccccc1 [Example 23, 6-((5-(4-(aminomethyl)-4-methylpiperidin-1-yl)pyrazin-2-yl)thio)-3-benzyl-5-chloro-2-methylquinazolin-4(3H)-one] |  |  |  |
| 3 to 100 nM | > 1500 nM | Cc1nc2ccc(Sc3cnc(N4CCC(C)(N)CC4)cn3)c(Cl)c2s1 [Example 24, 1-(5-((7-chloro-2-methylbenzo[d]thiazol-6-yl)thio)pyrazin-2-yl)-4-methylpiperidin-4-amine] |  |  |  |
| 3 to 100 nM | 45 to 1500 nM | Cn1cc2c(Cl)c(Sc3cnc(N4CCC(C)(N)CC4)cn3)ccc2n1 [Example 25, 1-(5-((4-chloro-2-methyl-2H-indazol-5-yl)thio)pyrazin-2-yl)-4-methylpiperidin-4-amine] |  |  |  |
| < 3 nM | < 45 nM | C[C@@H]1OCC2(CCN(c3cnc(Sc4ccc5nn(C)cc5c4Cl)cn3)CC2)[C@@H]1N [Example 26, (3S,4S)-8-(5-((4-chloro-2-methyl-2H-indazol-5-yl)thio)pyrazin-2-yl)-3-methyl-2-oxa-8-azaspiro[4.5]decan-4-amine] |  |  |  |
| > 100 nM | > 1500 nM | Cn1c(N2CCC(C)(N)CC2)nc(N)c(Sc2cccc(C(=O)O)c2Cl)c1=O [Example 27, 3-((4-amino-2-(4-amino-4-methylpiperidin-1-yl)-1-methyl-6-oxo-1,6-dihydropyrimidin-5-yl)thio)-2-chlorobenzoic acid] |  |  |  |
| 3 to 100 nM | 45 to 1500 nM | CC1(N)CCN(c2cnc(Sc3ccc4ncn(-c5ccccc5)c(=O)c4c3Cl)cn2)CC1 [Example 28, 6-((5-(4-amino-4-methylpiperidin-1-yl)pyrazin-2-yl)thio)-5-chloro-3-phenylquinazolin-4(3H)-one] |  |  |  |
| > 100 nM | > 1500 nM | Cn1c(N2CCC(C)(N)CC2)nc(N)c(Sc2ccc3nc[nH]c(=O)c3c2Cl)c1=O [Example 29, 6-((4-amino-2-(4-amino-4-methylpiperidin-1-yl)-1-methyl-6-oxo-1,6-dihydropyrimidin-5-yl)thio)-5-chloroquinazolin-4(3H)-one] |  |  |  |
| > 100 nM | > 1500 nM | Cn1c(N2CCC(C)(N)CC2)nc(N)c(Sc2ccc3ncn(-c4ccccc4)c(=O)c3c2Cl)c1=O [Example 30, 6-((4-amino-2-(4-amino-4-methylpiperidin-1-yl)-1-methyl-6-oxo-1,6-dihydropyrimidin-5-yl)thio)-5-chloro-3-phenylquinazolin-4(3H)-one] |  |  |  |
| < 3 nM | < 45 nM | C[C@@H]1OCC2(CCN(c3cnc(Sc4ccc5ncn(Cc6cccc(C#N)c6)c(=O)c5c4Cl)cn3)CC2)[C@@H]1N [Example 31, 3-((6-((5-((3S,4S)-4-amino-3-methyl-2-oxa-8-azaspiro[4.5]decan-8-yl)pyrazin-2-yl)thio)-5-chloro-4-oxoquinazolin-3(4H)-yl)methyl)benzonitrile] |  |  |  |
| < 3 nM | 45 to 1500 nM | CC(c1ccccc1)n1cnc2ccc(Sc3cnc(N4CCC5(CC4)CO[C@@H](C)[C@H]5N)cn3)c(Cl)c2c1=O (stereo partly drawn) [Example 32, 6-((5-((3S,4S)-4-amino-3-methyl-2-oxa-8-azaspiro[4.5]decan-8-yl)pyrazin-2-yl)thio)-5-chloro-3-(1-phenylethyl)quinazolin-4(3H)-one] |  |  |  |
| < 3 nM | 45 to 1500 nM | C[C@@H]1OCC2(CCN(c3cnc(Sc4ccc5ncn(Cc6cccc(F)c6)c(=O)c5c4Cl)cn3)CC2)[C@@H]1N [Example 33, 6-((5-((3S,4S)-4-amino-3-methyl-2-oxa-8-azaspiro[4.5]decan-8-yl)pyrazin-2-yl)thio)-5-chloro-3-(3-fluorobenzyl)quinazolin-4(3H)-one] |  |  |  |
| 3 to 100 nM | 45 to 1500 nM | C[C@@H]1OCC2(CCN(c3cnc(Sc4ccc5ncn(Cc6cccc(C(F)(F)F)c6)c(=O)c5c4Cl)cn3)CC2)[C@@H]1N [Example 34] |  |  |  |
| < 3 nM | < 45 nM | C[C@@H]1OCC2(CCN(c3cnc(Sc4ccc5ncn(Cc6nccs6)c(=O)c5c4Cl)cn3)CC2)[C@@H]1N [Example 35, 6-((5-((3S,4S)-4-amino-3-methyl-2-oxa-8-azaspiro[4.5]decan-8-yl)pyrazin-2-yl)thio)-5-chloro-3-(thiazol-2-ylmethyl)quinazolin-4(3H)-one] |  |  |  |
| < 3 nM | < 45 nM | COc1cccc(Cn2cnc3ccc(Sc4cnc(N5CCC6(CC5)CO[C@@H](C)[C@H]6N)cn4)c(Cl)c3c2=O)c1 [Example 36, 6-((5-((3S,4S)-4-amino-3-methyl-2-oxa-8-azaspiro[4.5]decan-8-yl)pyrazin-2-yl)thio)-5-chloro-3-(3-methoxybenzyl)quinazolin-4(3H)-one] |  |  |  |

| Compound | IC50 (SHP2 (full length); read-out: IC50 (PTPase aS say)) | IC50 [1, 4] | IC50 (SHP2 (full length); IC50 (PTPase aS say, nM)) | IC50 [1, 2] | IC50 [1, 3] |
| --- | --- | --- | --- | --- | --- |
| C[C@@H]1OCC2(CCN(c3cnc(Sc4cccc(S(N)(=O)=O)c4Cl)c(N)n3)CC2)[C@@H]1N [Example 12, 3-((3-amino-5-((3S,4S)-4-amino-3-methyl-2-oxa-8-azaspiro[4.5]decan-8-yl)pyrazin-2-yl)thio)-2-chlorobenzenesulfonamide] | 3 to 100 nM |  |  |  | 45 to 1500 nM |
| CC1(CN)CCN(c2cnc(Sc3ccc4ncn(Cc5ccccc5)c(=O)c4c3Cl)cn2)CC1 [Example 13, 6-((5-(4-(aminomethyl)-4-methylpiperidin-1-yl)pyrazin-2-yl)thio)-3-benzyl-5-chloroquinazolin-4(3H)-one] | 3 to 100 nM |  |  |  | 45 to 1500 nM |
| C[C@@H]1OCC2(CCN(c3cnc(Sc4ccc5ncn(Cc6ccccc6)c(=O)c5c4Cl)cn3)CC2)[C@@H]1N [Example 18, 6-((5-((3S,4S)-4-amino-3-methyl-2-oxa-8-azaspiro[4.5]decan-8-yl)pyrazin-2-yl)thio)-3-benzyl-5-chloroquinazolin-4(3H)-one] | < 3 nM |  |  |  | < 45 nM |
